Laboratory results published in ChEMBL document CHEMBL6115036, “Exploration of membrane-active cephalosporin derivatives as potent antibacterial agents against Staphylococcus aureus biofilms and persisters” (Eur J Med Chem, 2025).
Calls of active or inactive are those of the source. The calls are words filed in the database; no cut-off is given here.

Experiments:
Staphylococcus aureus [1] = assay: Antibacterial activity against Staphylococcus aureus infected in Kunming mouse model of subcutaneous abscess assessed as surviving bacteria in skin tissue at 10 mg/kg, sc measured after 48 hrs relative to control; type: functional
Staphylococcus aureus [2] = assay: Antibacterial activity against Staphylococcus aureus infected in Kunming mouse model of subcutaneous abscess assessed as reduction in bacterial load in skin tissue at 10 mg/kg, sc measured after 48 hrs relative to control; type: functional; design: scale not given: the % may be the effect or the level left
Staphylococcus aureus [3] = assay: Antibacterial activity against Staphylococcus aureus infected in Kunming mouse model of subcutaneous abscess assessed as reduction in number of bacteria in skin tissue at 5 to 10 mg/kg, sc measured after 48 hrs; type: functional, organism-based; conditions: dose 5-10 mg/kg
Staphylococcus aureus [4] = assay: Inhibition of biofilm formation in Staphylococcus aureus assessed as reduction in number of live bacterial count at 16 times MIC incubated for 24 hrs; type: functional
Staphylococcus aureus [5] = assay: Inhibition of biofilm formation in Staphylococcus aureus at 16 times MIC incubated for 24 hrs; type: functional, organism-based
Enterococcus faecalis = assay: Antimicrobial activity against Enterococcus faecalis incubated for 16 to 18 hrs by broth dilution assay; type: functional; conditions: time 16-18 hrs
Staphylococcus aureus [6] = assay: Antimicrobial activity against Staphylococcus aureus incubated for 16 to 18 hrs by broth dilution assay; type: functional; conditions: time 16-18 hrs
[7] = system: Stenotrophomonas maltophilia; assay: Antimicrobial activity against Stenotrophomonas maltophilia incubated for 16 to 18 hrs by broth dilution assay; type: functional; conditions: time 16-18 hrs
Escherichia coli = assay: Antimicrobial activity against Escherichia coli incubated for 16 to 18 hrs by broth dilution assay; type: functional; conditions: time 16-18 hrs
[8] = Hemolytic activity in sheep red blood cells incubated for 1 hr; type: toxicity, cell-based, Ovis aries, Erythrocyte
Staphylococcus aureus [9] = assay: Induction of cytoplasmic membrane depolarization in Staphylococcus aureus assessed as increase in fluorescence intensity at 32 ug/ml measured for 20 mins by DiSC3(5) dye based analysis; type: functional, organism-based; conditions: dose 32.0 µg/ml
Staphylococcus aureus [10] = assay: Induction of inner membrane permeability in Staphylococcus aureus assessed as increase in fluorescence intensity at 32 ug/ml measured for 20 mins by PI dye based analysis; type: functional, organism-based; conditions: dose 32.0 µg/ml
Staphylococcus aureus [11] = assay: Disruption of cell membrane in Staphylococcus aureus assessed as nucleic acid leakage measured after 2 hrs by fluorescence based analysis; type: functional, organism-based; conditions: dose 8-32 µg/ml
Staphylococcus aureus [12] = assay: Disruption of cell membrane in Staphylococcus aureus assessed as protein leakage measured after 2 hrs by fluorescence based analysis; type: functional, organism-based; conditions: dose 8-32 µg/ml
Staphylococcus aureus [13] = assay: Bactericidal activity against Staphylococcus aureus assessed as reduction in bacterial colony count at 4 to 8 times MIC incubated for 8 hrs by time kill assay; type: functional, organism-based
Staphylococcus aureus [14] = assay: Antibacterial activity against Staphylococcus aureus in presence of 50% sheep plasma; type: functional, organism-based
Staphylococcus aureus [15] = assay: Antibacterial activity against Staphylococcus aureus in presence of 50% FBS; type: functional, organism-based
Staphylococcus aureus [16] = assay: Bactericidal activity against Staphylococcus aureus measured for 3 to 6 hrs in presence of 50% sheep plasma; type: functional, organism-based; conditions: time 3-6 hrs
Staphylococcus aureus [17] = assay: Induction of resistance development in Staphylococcus aureus at sub-MIC measured after 20 passages; type: functional, organism-based
Staphylococcus aureus [18] = assay: Induction of resistance development in drug-resistant Staphylococcus aureus at sub-MIC measured after 20 passages in presence of norfloxacin; type: functional, organism-based
Staphylococcus aureus [19] = assay: Induction of resistance development in drug-resistant Staphylococcus aureus at sub-MIC measured after 20 passages in presence of ciprofloxacin; type: functional, organism-based
Staphylococcus aureus [20] = assay: Induction of resistance development in drug-resistant Staphylococcus aureus at sub-MIC measured after 20 passages in presence of levofloxacin; type: functional, organism-based
Staphylococcus aureus [21] = assay: Induction of resistance development in drug-resistant Staphylococcus aureus at sub-MIC measured after 20 passages in presence of linezolid; type: functional, organism-based
Staphylococcus aureus [22] = assay: Induction of resistance development in drug-resistant Staphylococcus aureus at sub-MIC measured after 20 passages in presence of rifampicin; type: functional, organism-based
Staphylococcus aureus [23] = assay: Induction of resistance development in drug-resistant Staphylococcus aureus at sub-MIC measured after 20 passages in presence of vancomycin; type: functional, organism-based
Staphylococcus aureus [24] = assay: Induction of resistance development in drug-resistant Staphylococcus aureus at sub-MIC measured after 20 passages in presence of cefuroxime sodium; type: functional, organism-based
Staphylococcus aureus [25] = assay: Induction of resistance development in drug-resistant Staphylococcus aureus at sub-MIC measured after 20 passages in presence of ampicillin sodium; type: functional, organism-based
Staphylococcus aureus [26] = assay: Inhibition of metabolic activity in Staphylococcus aureus incubated for 6 hrs by Alamar blue assay; type: functional, organism-based
Staphylococcus aureus [27] = assay: Induction of intracellular ROS accumulation in Staphylococcus aureus incubated overnight by DCFH-DA dye based analysis; type: functional, organism-based
Staphylococcus aureus [28] = assay: Antibacterial activity against Staphylococcus aureus assessed as inhibition of bacterial growth at stationary phase at 32 times MIC incubated for 4 hrs; type: functional, organism-based
Staphylococcus aureus [29] = assay: Antibacterial activity against rifampicin-induced persistant Staphylococcus aureus assessed as decrease in CFU at 16 times MIC measured for 10 hrs; type: functional
Staphylococcus aureus [30] = assay: Bactericidal activity against rifampicin-induced persistant Staphylococcus aureus at 32 times MIC measured for 10 hrs; type: functional, organism-based
Staphylococcus aureus [31] = assay: Inhibition of biofilm formation in Staphylococcus aureus assessed as decrease in bacterial count at 32 times MIC incubated for 24 hrs by CLSM analysis; type: functional, organism-based
Staphylococcus aureus [32] = assay: Inhibition of biofilm formation in Staphylococcus aureus assessed as punctate distribution at 32 times MIC incubated for 24 hrs by CLSM analysis; type: functional, organism-based
[33] = Cytotoxicity against human HeLa cells incubated for 24 hrs by CCK8 assay; type: toxicity, cell-based
[34] = Cytotoxicity against HUVEC cells incubated for 24 hrs by CCK8 assay; type: toxicity, cell-based; conditions: human
Staphylococcus aureus [35] = assay: Antibacterial activity against Staphylococcus aureus infected in Kunming mouse model of subcutaneous abscess assessed as decrease in neutrophil level in skin tissue at 5 mg/kg, sc measured after 48 hrs by H and E staining based analysis; type: functional, organism-based
Staphylococcus aureus [36] = assay: Antibacterial activity against Staphylococcus aureus infected in Kunming mouse model of subcutaneous abscess assessed as decrease in inflammation in skin tissue at 5 mg/kg, sc measured after 48 hrs by H and E staining based analysis; type: functional, organism-based
[37] = Toxicity in Kunming mouse model of subcutaneous abscess infected with Staphylococcus aureus assessed as damage in heart at 5 to 10 mg/kg, sc measured after 48 hrs by H and E staining based analysis; type: organism-based; conditions: in vivo, dose 5-10 mg/kg
[38] = Toxicity in Kunming mouse model of subcutaneous abscess infected with Staphylococcus aureus assessed as damage in liver at 5 to 10 mg/kg, sc measured after 48 hrs by H and E staining based analysis; type: organism-based; conditions: in vivo, dose 5-10 mg/kg
[39] = Toxicity in Kunming mouse model of subcutaneous abscess infected with Staphylococcus aureus assessed as damage in spleen at 5 to 10 mg/kg, sc measured after 48 hrs by H and E staining based analysis; type: organism-based; conditions: in vivo, dose 5-10 mg/kg
[40] = Toxicity in Kunming mouse model of subcutaneous abscess infected with Staphylococcus aureus assessed as damage in lung at 5 to 10 mg/kg, sc measured after 48 hrs by H and E staining based analysis; type: organism-based; conditions: in vivo, dose 5-10 mg/kg
[41] = Toxicity in Kunming mouse model of subcutaneous abscess infected with Staphylococcus aureus assessed as damage in kidney at 5 to 10 mg/kg, sc measured after 48 hrs by H and E staining based analysis; type: organism-based; conditions: in vivo, dose 5-10 mg/kg
[42] = Toxicity in Kunming mouse model of subcutaneous abscess infected with Staphylococcus aureus assessed as histopathological abnormalities in heart at 5 to 10 mg/kg, sc measured after 48 hrs by H and E staining based analysis; type: organism-based; conditions: in vivo, dose 5-10 mg/kg
[43] = Toxicity in Kunming mouse model of subcutaneous abscess infected with Staphylococcus aureus assessed as histopathological abnormalities in liver at 5 to 10 mg/kg, sc measured after 48 hrs by H and E staining based analysis; type: organism-based; conditions: in vivo, dose 5-10 mg/kg
[44] = Toxicity in Kunming mouse model of subcutaneous abscess infected with Staphylococcus aureus assessed as histopathological abnormalities in spleen at 5 to 10 mg/kg, sc measured after 48 hrs by H and E staining based analysis; type: organism-based; conditions: in vivo, dose 5-10 mg/kg
[45] = Toxicity in Kunming mouse model of subcutaneous abscess infected with Staphylococcus aureus assessed as histopathological abnormalities in lung at 5 to 10 mg/kg, sc measured after 48 hrs by H and E staining based analysis; type: organism-based; conditions: in vivo, dose 5-10 mg/kg
[46] = Toxicity in Kunming mouse model of subcutaneous abscess infected with Staphylococcus aureus assessed as histopathological abnormalities in kidney at 5 to 10 mg/kg, sc measured after 48 hrs by H and E staining based analysis; type: organism-based; conditions: in vivo, dose 5-10 mg/kg

## CCCCCCCCCCCCCCCC[n+]1ccc(-c2cc[n+](CC3=C(C(=O)[O-])N4C(=O)[C@@H](NC(=O)Cc5ccccc5)[C@H]4SC3)cc2)cc1.O=C([O-])C(F)(F)F
Staphylococcus aureus [1]
  Activity: 0.13%
Staphylococcus aureus [2]
  Activity: 99.87%
Staphylococcus aureus [3]
  Activity: Active
Staphylococcus aureus [4]
  Activity: ~1 10^8CFU/ml
Staphylococcus aureus [5]
  inhibition: Active; Compound Activity Better Than Vancomycin, Rifampicin And Cephalothin
Enterococcus faecalis
  MIC: 32 µg/mL
Staphylococcus aureus [6]
  MIC: 4 µg/mL
[7]
  MIC: 128 µg/mL
Escherichia coli
  MIC: 128 µg/mL
[8]
  HC50 at 1 h: 112 µg/mL
Staphylococcus aureus [9]
  Activity: Active
Staphylococcus aureus [10]
  Activity: Active
Staphylococcus aureus [11]
  Activity: Dose-dependent-effect
Staphylococcus aureus [12]
  Activity: Dose-dependent-effect
Staphylococcus aureus [13]
  Activity: Active
Staphylococcus aureus [14]
  Activity: Active; Mic Value Of Compound In Plasma Was Equal To Mic In Mhb Medium
Staphylococcus aureus [15]
  Activity: Active; Mic Value Of Compound In Serum Was Equal To Mic In Mhb Medium
Staphylococcus aureus [16]
  Activity: Active
Staphylococcus aureus [17]
  Activity: inactive
Staphylococcus aureus [18]
  Activity: inactive
Staphylococcus aureus [19]
  Activity: inactive
Staphylococcus aureus [20]
  Activity: inactive
Staphylococcus aureus [21]
  Activity: inactive
Staphylococcus aureus [22]
  Activity: inactive
Staphylococcus aureus [23]
  Activity: inactive
Staphylococcus aureus [24]
  Activity: inactive
Staphylococcus aureus [25]
  Activity: inactive
Staphylococcus aureus [26]
  inhibition: Dose-dependent-effect
Staphylococcus aureus [27]
  Activity: Dose-dependent-effect
Staphylococcus aureus [28]
  inhibition: Active
Staphylococcus aureus [29]
  Activity: ~1 10^5CFU/ml
Staphylococcus aureus [30]
  Activity: Active
Staphylococcus aureus [31]
  inhibition: Active
Staphylococcus aureus [32]
  inhibition: Active
[33]
  CC50 at 24 h: 34.7 µg/mL
[34]
  CC50 at 24 h: 15.7 µg/mL
Staphylococcus aureus [35]
  Activity: Active
Staphylococcus aureus [36]
  Activity: Active
[37]
  Activity: Non-toxic
[38]
  Activity: Non-toxic
[39]
  Activity: Non-toxic
[40]
  Activity: Non-toxic
[41]
  Activity: Non-toxic
[42]
  Activity: Non-toxic
[43]
  Activity: Non-toxic
[44]
  Activity: Non-toxic
[45]
  Activity: Non-toxic
[46]
  Activity: Non-toxic
